The results in this text go back to ChEMBL document CHEMBL1145932, “Design and synthesis of novel bioactive peptides and peptidomimetics” (J Med Chem, 2003).

Data set [1] in a line: Half life period was determined. The data set is classed as ADME.
For data set [2], the system named is LNCaP. In words: In vitro effective concentration against LNCaP prostate cancer cell line. It counts as functional, cell-based. Particulars: Homo sapiens.
The subject of data set [3] is DuPro. The data set is described as follows: In vitro effective concentration against DuPRO cancer cell line. The data set is classed as functional, cell-based. Particulars: Homo sapiens.
The species named for data set [4] is Rattus norvegicus. In words: In vitro relative potency for the inhibition of growth hormone release. The data set is classed as functional.
The species named for data set [5] is Rattus norvegicus. In words: Relative potency for the inhibition of glucagon hormone release. The data set is classed as functional.
The species entered for data set [6] is Rattus norvegicus. The data set is described as follows: Relative potency for the inhibition of insulin hormone release. It counts as functional.
For data set [7], the species on record is Rattus norvegicus. In words: Relative potency for the inhibition of glucagon hormone release; Active. The data set is classed as functional, organism-based.
The subject of data set [8] is COLO 320. In words: In vitro effective concentration against COLO 320 cell line. The data set is classed as functional, cell-based. Particulars: Homo sapiens.
Data set [9] concerns Mus musculus. The data set is described as follows: In vivo maximum tolerated dose was determined. The data set is classed as functional.
The subject of data set [10] is Mus musculus. The data set is described as follows: In vivo maximum tolerated dose in nude mice was determined. The data set is classed as functional.
Data set [11] has as its system Mus musculus. In words: In vivo percentage reduction of prostate specific antigen (PSA) was determined at a dose of 0.26 umol/kg of the compound. It counts as functional, Prostate gland.
The test system of data set [12] is T47D. In words: In vitro effective concentration against T47D cell line. The data set is classed as functional, cell-based. The settings on record: Homo sapiens.
The species entered for data set [13] is Rattus norvegicus. The data set is described as follows: Relative potency for the inhibition of growth hormone release. The data set is classed as functional.
Data set [14] has as its system Mus musculus. The data set is described as follows: In vivo percentage weight reduction of tumor was determined at a dose of 0.26 umol/kg of the compound. It counts as functional.

Activity calls are given as the source filed them. Numbered stars: 1 amine (or outer) side, 2 acyl side, 3 side chain; on linkers, the order of the positions; unused ones are H or OH. Square brackets hold non-standard residues; d marks the D form. Peptide text beside a SMILES is read from it. * marks the point of attachment. ξ: configuration not given here. Doxorubicin(3'-N) = COc1cccc2c1C(=O)c1c(O)c3c(c(O)c1C2=O)C[C@@](O)(C(=O)CO)C[C@@H]3O[C@H]1C[C@H](N*)[C@H](O)[C@H](C)O1; X2 = COc1cccc2c1C(=O)c1c(O)c3c(c(O)c1C2=O)C[C@@](O)(C(=O)CO)C[C@@H]3O[C@H]1C[C@@H](N*)[C@H](O)[C@H](C)O1; X1 = COc1cccc2c1C(=O)c1c(O)c3c(c(O)c1C2=O)C[C@@](O)(C(=O)CO)C[C@@H]3OC1CC(N*)C(O)C(C)O1; ξPro(4R-OH) = O=C(O)C1C[C@@H](O)CN1; Glutaryl = O=C(CCCC(=O)[*:2])[*:1]; Hyp = O=C(O)[C@@H]1C[C@@H](O)CN1; Chg = N[C@H](C(=O)O)C1CCCCC1; Suc = O=C(CCC(=O)[*:2])[*:1]

By half-life is commonly meant the time needed for the level to fall by half in the phase considered. Low values mean rapid decline, high ones slow decline. The EC50 is the concentration that produces a half-maximal response. Low values mean a more potent agent, high ones a less potent agent. Take `COc1cccc2c1C(=O)c1c(O)c3c(c(O)c1C2=O)C[C@@](O)(C(=O)CO)C[C@@H]3OC1CC(NC(=O)[C@H](CC(C)C)NC(=O)[C@H](CO)NC(=O)[C@H](CCC(N)=O)NC(=O)[C@@H](NC(=O)[C@H](CO)NC(=O)[C@H](C)NC(=O)C2C[C@@H](O)CN2C(=O)CCC(=O)O)C2CCCCC2)C(O)C(C)O1` (stereo partly drawn) (Suc-[ξPro(4R-OH)]AS[Chg]QSL-X1): the half-life in data set [1] amounted to 55 min. The EC50 in [2] stood at 5.7 µM; in data set [3] it was 100 µM.
Consider `C[C@@H](O)[C@@H]1NC(=O)[C@H](CCCCN)NC(=O)[C@@H](Cc2c[nH]c3ccccc23)NC(=O)[C@H](Cc2ccccc2)NC(=O)CN2CC[C@H](NC1=O)C2=O`, for which the Relative potency in [4] was 0.004; in data set [5], less than 0.07; in data set [6], less than 0.07.
Take `C[C@@H](O)[C@@H]1NC(=O)[C@H](CCCCN)NC(=O)[C@@H](Cc2c[nH]c3ccccc23)NC(=O)[C@H](Cc2ccccc2)NC(=O)[C@@H]2CCCN2C(=O)[C@H](Cc2ccccc2)N(C)C1=O`: the Relative potency in data set [4] amounted to 0.53; in data set [5], 2; in data set [6], 1.1.
As for `C[C@@H](O)[C@@H]1NC(=O)[C@H](CCCCN)NC(=O)[C@@H](Cc2c[nH]c3ccccc23)NC(=O)[C@H](Cc2ccccc2)NC(=O)[C@H](C)N(C)C(=O)[C@H](Cc2ccccc2)NC1=O`, the Relative potency stood at 3.5 in data set [4], 16.7 in data set [5] and 6 in data set [6].
Consider `C[C@@H](O)[C@@H]1NC(=O)[C@H](CCCCN)NC(=O)[C@H](Cc2c[nH]c3ccccc23)NC(=O)[C@H](Cc2ccccc2)NC(=O)CN2CCC[C@@H](NC1=O)C2=O`, for which the results for the Relative potency in data set [4], in data set [5] and in [6] were less than 0.005, less than 0.07 and less than 0.07, respectively.
In the case of `COc1cccc2c1C(=O)c1c(O)c3c(c(O)c1C2=O)C[C@@](O)(C(=O)CO)C[C@@H]3OC1CC(NC(=O)[C@H](CC(C)C)NC(=O)[C@H](CO)NC(=O)[C@H](CCC(N)=O)NC(=O)[C@@H](NC(=O)[C@H](CO)NC(=O)[C@H](C)NC(=O)[C@H](CCCCN)NC(C)=O)C2CCCCC2)C(O)C(C)O1` (stereo partly specified) (Ac-KAS[Chg]QSL-X1), the half-life in [1] is 10 min. In data set [3], this molecule showed an EC50 greater than 100 µM.
As for `C[C@@H](O)[C@@H]1NC(=O)[C@H](CCCCN)N(C)C(=O)[C@@H](Cc2c[nH]c3ccccc23)NC(=O)[C@H](Cc2ccccc2)NC(=O)[C@@H]2CCCN2C(=O)[C@H](Cc2ccccc2)NC1=O`, the Relative potency in [4] amounted to 1.6; in [6], 0.5. The Relative potency entry in data set [7] is “Active”.
`COc1cccc2c1C(=O)c1c(O)c3c(c(O)c1C2=O)C[C@@](O)(C(=O)CO)C[C@@H]3OC1CC(NC(=O)[C@H](CC(C)C)NC(=O)[C@H](CO)NC(=O)[C@H](CCC(N)=O)NC(=O)[C@@H](NC(=O)[C@H](CO)NC(=O)[C@H](C)NC(=O)C2C[C@@H](O)CN2C(C)=O)C2CCCCC2)C(O)C(C)O1` (stereo partly drawn) (Ac-[ξPro(4R-OH)]AS[Chg]QSL-X1): the half-life in data set [1] turned out to be 20 min. Besides, the half-maximal effective concentration (EC50) in [2] came to 4.5 µM; in data set [3], 100 µM.
Take `CC[C@]1(O)CC[C@@H]2CN1CCC1c3ccccc3NC1[C@@H](c1cc3c(cc1OC)N(C)C1C34CCN3CC=C[C@](CC)(C34)[C@@H](OC(=O)[C@@H]3CCCN3C(=O)[C@H](CO)NC(=O)[C@H](CO)NC(=O)[C@H](CCC(N)=O)NC(=O)[C@@H](NC(=O)[C@H](CO)NC(=O)[C@H](CO)NC(=O)[C@@H]3CC(O)CN3C(C)=O)C3CCCCC3)[C@]1(O)C(=O)OC)[C@H]2C(=O)OC` (stereo partly specified): the results for the EC50 in [8], in data set [2] and in data set [12] were 14 µM, 1.6 µM and greater than 50 µM, respectively. This molecule also returned an MTD in data set [9] of 21.4 µM/kg. In addition, in [1], the half-life was determined as 12 min. Also, the Tumor weight reduction in data set [10] is 85%. Besides, the PSA in data set [11] came to 99%.
With `COc1cccc2c1C(=O)c1c(O)c3c(c(O)c1C2=O)C[C@@](O)(C(=O)CO)C[C@@H]3OC1CC(NC(=O)[C@H](CC(C)C)NC(=O)[C@H](CO)NC(=O)[C@H](CCC(N)=O)NC(=O)[C@H](Cc2ccc(O)cc2)NC(=O)[C@H](CO)NC(=O)[C@H](C)NC(=O)[C@H](CCCCN)NC(C)=O)C(O)C(C)O1` (stereo partly specified) (Ac-KASYQSL-X1), in [1], the half-life was 30 min.
As to `COc1cccc2c1C(=O)c1c(O)c3c(c(O)c1C2=O)C[C@@](O)(C(=O)CO)C[C@@H]3O[C@H]1C[C@H](NC(=O)[C@H](CC(C)C)NC(=O)[C@H](CO)NC(=O)[C@H](CO)NC(=O)[C@H](CCC(N)=O)NC(=O)[C@H](Cc2ccc(O)cc2)NC(=O)[C@H](CO)NC(=O)[C@H](C)NC(=O)[C@H](CCCCN)NC(=O)[C@H](CC(N)=O)NC(=O)[C@H](C)NC(C)=O)[C@H](O)[C@H](C)O1` (Ac-ANKASYQSSL-{Doxorubicin(3'-N)}), in data set [1], the half-life was 100 min. In data set [3], the EC50 is greater than 100 µM.
`C[C@H](O)[C@H]1NC(=O)[C@@H](Cc2ccccc2)N(C)C(=O)[C@@H](C)NC(=O)[C@@H](Cc2ccccc2)NC(=O)[C@H](Cc2c[nH]c3ccccc23)CNC(=O)[C@@H](CCCCN)NC1=O` came in with a Relative potency in data set [4] of 0.27.
Regarding `C[C@@H](O)[C@@H]1NC(=O)[C@H](CCCCN)NC(=O)[C@@H](Cc2c[nH]c3ccccc23)NC(=O)[C@H](Cc2ccccc2)NC(=O)CN2CC[C@@H](NC1=O)C2=O`, the Relative potency was 0.001 in data set [4], less than 0.2 in [5] and less than 0.2 in [6].
In the case of `C[C@H](O)[C@H]1NC(=O)[C@@H](Cc2ccccc2)N(C)C(=O)[C@@H](C)NC(=O)[C@@H](Cc2ccccc2)NC(=O)[C@@H](Cc2c[nH]c3ccccc23)CNC(=O)[C@H](CCCCN)NC1=O`, in data set [4], the Relative potency came out at 0.88.
`C[C@@H](O)[C@@H]1NC(=O)[C@H](CCCCN)NC(=O)[C@@H](Cc2c[nH]c3ccccc23)NC(=O)[C@H](Cc2ccccc2)NC(=O)[C@@H]2CSSC[C@H](NC1=O)C(=O)NCCCCCCC(=O)N2`: the Relative potency in data set [13] was determined as 1.24.
As for `COc1cccc2c1C(=O)c1c(O)c3c(c(O)c1C2=O)C[C@@](O)(C(=O)CO)C[C@@H]3OC1CC(NC(=O)C(N)CC(C)C)C(O)C(C)O1` (stereo partly specified), the EC50 in [2] worked out at 6.7 µM; in data set [3] it was 14 µM.
Consider `COc1cccc2c1C(=O)c1c(O)c3c(c(O)c1C2=O)C[C@@](O)(C(=O)CO)C[C@@H]3O[C@H]1C[C@@H](NC(=O)[C@H](CC(C)C)NC(=O)[C@H](CO)NC(=O)[C@H](CCC(N)=O)NC(=O)[C@@H](NC(=O)[C@H](CO)NC(=O)[C@H](C)NC(=O)[C@@H]2C[C@@H](O)CN2C(=O)CCCC(=O)O)C2CCCCC2)[C@H](O)[C@H](C)O1` (Glutaryl-[Hyp]AS[Chg]QSL-X2), for which the half-life in data set [1] was 30 min. Moreover, the EC50 in data set [2] is 5 µM; in [3] it was greater than 100 µM.
Turning to `CC[C@]1(O)CC[C@@H]2CN1CCC1c3ccccc3NC1[C@@H](c1cc3c(cc1OC)N(C)C1C34CCN3CC=C[C@](CC)(C34)[C@@H](O)[C@]1(O)C(=O)OC)[C@H]2C(=O)OC` (stereo partly specified), the EC50 in data set [8] was 0.2 µM; in data set [2], 0.1 µM; in [12] it was 0.15 µM. Besides, in data set [14], the Tumor weight reduction came out at 16%. This molecule also had an MTD in data set [10] of 0.26 µM/kg. This molecule gave a PSA in [11] of 14%.
On to `C[C@H](O)[C@H]1NC(=O)[C@@H](Cc2ccccc2)NC(=O)[C@@H](C)N(C)C(=O)[C@@H](Cc2ccccc2)NC(=O)[C@H](Cc2c[nH]c3ccccc23)CNC(=O)[C@@H](CCCCN)NC1=O`, for which the Relative potency in data set [4] turned out to be 0.003.
`CC[C@]1(O)CC[C@@H]2CN1CCC1c3ccccc3NC1[C@@H](c1cc3c(cc1OC)N(C)C1C34CCN3CC=C[C@](CC)(C34)[C@@H](OC(C)=O)[C@]1(O)C(=O)OC)[C@H]2C(=O)OC` (stereo partly specified) returned a concentration for a half-maximal effect (EC50) in data set [2] of 0.5 µM.
On to `C[C@H](N)C(=O)NCC(=O)N[C@H]1CSSC[C@@H](C(=O)O)NC(=O)[C@H](CO)NC(=O)[C@H]([C@@H](C)O)NC(=O)[C@H](Cc2ccccc2)NC(=O)[C@H]([C@@H](C)O)NC(=O)[C@H](CCCCN)NC(=O)[C@H](Cc2c[nH]c3ccccc23)NC(=O)[C@H](Cc2ccccc2)NC(=O)[C@H](Cc2ccccc2)NC(=O)[C@H](CC(N)=O)NC(=O)[C@H](CCCCN)NC1=O` [SOMATOSTATIN], for which the Relative potency in data set [4] turned out to be 1.
In the case of `C[C@@H](O)[C@@H]1NC(=O)[C@H](CCCCN)NC(=O)[C@H](Cc2c[nH]c3ccccc23)NC(=O)[C@H](Cc2ccccc2)NC(=O)CN2CCC[C@H](NC1=O)C2=O`, the Relative potency in data set [4] is less than 0.005; in data set [5], less than 0.07; in data set [6] it was less than 0.07.
